Data: patent publication US9562066B2, “Oral therapy of necrotizing enterocolitis” (University of Pittsburgh—of the Commonwealth System of …, priority 2012, dated 2017)

Tests used:
[1] = system: murine model for NEC (mNEC); experiment: Murine model for NEC (mNEC), oral CpG-ODN during induction (Example 1); format: in vivo, mouse; conditions: for gross morphology: mNEC mice treated orally vs untreated mNEC mice, FIG. 5; for expression of TNFα in the intestines (quantitative RT-PCR) / disruption of the small intestine mucosa (H&E histology): mNEC mice; for expression of TNFα in the intestines (quantitative RT-PCR): oral 1 mg/kg twice per day in formula, day 4 after mNEC induction, FIG. 1; for disruption of the small intestine mucosa (H&E histology): FIG. 2A-F; for body weight: treated vs untreated mNEC mice
Experimental: (§1) A murine model for NEC (“mNEC”) was produced in newborn mice by 4 days of hypoxia and formula gavage (52), which leads to the induction of iNOS, reduced enterocyte proliferation, and disruption of the ileal mucosa (“mNEC” mice) as compared to control mice that were allowed to breast feed (“BF” mice”). Specifically, mNEC was induced in 10-d-old mice (12) using formula gavage [Similac Advance infant formula (Abbott Nutrition):Esbilac canine milk replacer, 2:1] 50 μL/g body weight, five times per day for 4 d, and hypoxia (5% O2, 95% N2) administered for 10 min twice daily for 4 d using a hypoxia chamber (Billups-Rothenberg Inc.). CpG-1 was […]-3′ (SEQ ID NO:6), containing phosphorothioate linkages, known in the art as CpG ODN 1826 (Coley Pharmaceutical Group, Ottawa, Ontario, Canada (Pfizer)). CpG-2 was 5′ […] 3′ (SEQ ID NO:9). CpG-1 or CpG-2 was administered at a dose of 1 mg/kg at a frequency of twice per day in the infant formula described above. Oral administration to breast-fed and NEC animals was achieved by gavage with a silastic foam tipped angiocatheter.
Quantitative RT-PCR was used to assess the effects of orally administered CpG-1 or CpG-2 on expression of the inflammatory cytokine tumor necrosis factor alpha (TNFα) in mNEC versus BF mice. Measurements were made on day 4 after mNEC induction. […] This effect was reflected by histologic evaluation, as depicted in FIG. 2A-F, where the disruption of the small intestine mucosa observed in untreated mNEC mice (FIG. 2B) is ameliorated in mNEC mice orally treated with CpG-1 or CpG-2 (FIGS. 2C and 2D, respectively) to resemble the mucosa of BF control (FIG. 2A).

[2] = system: NFκB; experiment: NFκB activation in intestinal mucosa of NFκB-GFP transgenic newborn mice with mNEC, confocal microscopy; format: in vivo, mouse; conditions: mNEC mice vs saline-treated mNEC, FIG. 4A-D
Description: FIG. 4A-D. Confocal microscopy showing extent of NFκB activation in intestinal mucosa of newborn transgenic mice that express NFκB-GFP. Nuclei are indicated by areas of blue fluorescence. NFκB is detected by a red fluorescent anti-GFP antibody, and is more punctate. Newborn mice were either (A) BF controls treated with saline; (B) mNEC mice treated with saline; or (C) mNEC mice treated with CpG-2. (D) is graphical depiction of results, showing the relative red (GFP) pixel intensity for each animal.
A murine model for NEC (“mNEC”) was produced in newborn mice by 4 days of hypoxia and formula gavage (52), which leads to the induction of iNOS, reduced enterocyte proliferation, and disruption of the ileal mucosa (“mNEC” mice) as compared to control mice that were allowed to breast feed (“BF” mice”). Specifically, mNEC was induced in 10-d-old mice (12) using formula gavage [Similac Advance infant formula (Abbott Nutrition):Esbilac canine milk replacer, 2:1] 50 μL/g body weight, five times per day for 4 d, and hypoxia (5% O2, 95% N2) administered for 10 min twice daily for 4 d using a hypoxia chamber (Billups-Rothenberg Inc.). CpG-1 was […]-3′ (SEQ ID NO:6), containing phosphorothioate linkages, known in the art as CpG ODN 1826 (Coley Pharmaceutical Group, Ottawa, Ontario, Canada (Pfizer)). CpG-2 was 5′ […] 3′ (SEQ ID NO:9). […]

[3] = system: murine model for NEC (mNEC); experiment: Pre-treatment with CpG-1 48 hours prior to attempted induction of mNEC; format: in vivo, mouse; conditions: administered 48 hours prior to attempted induction of mNEC
Experimental: FIG. 6A-C. Effects of pre-treatment of mice prior to induction of NEC. (A) Mucosal iNOS expression (as measured by RT-PCR) in BF controls, untreated mNEC animals, mice pre-treated with CpG-1 for 48 hours prior to attempted induction of NEC (“mNEC Cpg1”) and BF mice treated with CpG-1 for 48 hours. (B) Mucosal TNFα expression (as measured by RT-PCR) in BF controls, untreated mNEC animals, mice pre-treated with CpG-1 for 48 hours prior to attempted induction of NEC (“mNEC Cpg1”) and BF mice treated with CpG-1 for 48 hours. (C) Weight at the time of euthanasia of BF controls, untreated mNEC animals, mice pre-treated with CpG-1 for 48 hours prior to attempted induction of NEC (“mNEC Cpg1”) and BF mice treated with CpG-1 for 48 hours.
as §1

[4] = system: experimental NEC in neonatal mice; experiment: Experimental NEC in neonatal mice (formula feeding and hypoxia), oral CpG (Example 2); format: in vivo, mouse
Experimental: (§2) The effect of CpG-ODN 5′-[…]-3′ (SEQ ID NO:6; ODN 1826) on inhibiting NEC in a murine NEC model in vivo, and in ex vivo human samples from infants undergoing intestinal resection for active NEC or at the time of stoma closure was examined. To determine the level of NEC inhibition, the extent of LPS signaling was determined by the degree of expression of pro-inflammatory cytokines iNOS and TNFα by Quantitative real-time PCR (qRT-PCR).
Committee of the University of Pittsburgh. Swiss Webster mice were obtained from Charles River Laboratories. NEC was induced in 7-10 day old mice as described by Leaphart et al. (21) and Afrazi et al. (54) using formula gavage (a 2:1 ratio of Similac Advance infant formula (Ross Pediatrics):Esbilac canine milk replacer) administered five times/day, along with hypoxia (5% O2, 95% N2) for 10 min in a hypoxic chamber (Billups-Rothenberg, Inc., Del Mar, Calif.) twice daily, for 4 days. This protocol results in the development of patchy necrosis involving the small intestine, which is similar to human NEC, with an increase in circulating cytokines that mimics that observed in human NEC (40). CpG was administered via the oral route at a concentration of 1 mg/kg/day, which included […] of pretreatment prior to the start of the NEC model. Disease severity was determined on histological sections of the terminal ileum by a pediatric pathologist blinded to the study condition according to a scoring system from 0 (normal) to 3 (severe), as described by Leaphart et al. (21).
(§3) The extent of LPS signaling was determined by the degree of pro-inflammatory cytokines, iNOS, and TNFα by Quantitative real-time PCR (qRT-PCR). qRT-PCR was performed using the Bio-Rad CFX96 Real-Time System (Biorad, Hercules, Calif.) using the primers listed in the table below.
Statistical analysis was performed using SPSS 13.0 software. ANOVA was used for comparisons for experiments involving more than two experimental groups. Two-tailed student's t-test was used for comparison for experiments consisting of two experimental groups. For analysis of the severity of NEC, chi-square analysis was performed.

[5] = system: TLR4-mediated inflammation in human ex vivo intestinal tissue; experiment: LPS-induced (TLR4-mediated) inflammation in human ex vivo control and NEC intestinal tissue, qRT-PCR; format: cell-based; conditions: CpG 1 uM, LPS 50 ug/ml 3 hours
Experimental: as §2
All human tissue was obtained and processed as discarded tissue via waiver of consent with approval from the University of Pittsburgh Institutional Review Board and in accordance with the University of Pittsburgh anatomical tissue procurement guidelines. Human tissue was obtained from infants undergoing intestinal resection for active NEC or at the time of stoma closure (healed NEC at the time of stoma closure). After initial review by the duty pathologist to ensure that adequate diagnostic information was obtained from the gross tissue specimen, the intestinal resection was divided into multiple pieces, and treated in triplicate with media alone, LPS 50 ug/ml, CpG (1 uM) alone or LPS+CpG as described by Neal et al. (55). After 3 hours of treatment, tissue was processed for qRT-PCR, and assessed for the expression of IL1β, TLR4, iNOS or IL-6.
as §3

[6] = control tissue (healed NEC at stoma closure), FIG. 8A

Row | Substance | disease severity ([1]; mNEC animals, oral treatment, FIG. 3A) | gross morphology [1] | expression of TNFα in the intestines (quantitative RT-PCR) [1] | disruption of the small intestine mucosa (H&E histology) ([1]; oral treatment) | body weight [1] | nuclear localization of NFκB (punctate red fluorescence) [2] | inducible nitric oxide synthase (iNOS) level (qRT-PCR) ([1]; mNEC mice versus BF controls, oral CpG, FIG. 3B) | mucosal expression of iNOS (RT-PCR) ([3]; FIG. 6A) | mucosal expression of TNFα (RT-PCR) ([3]; FIG. 6B) | weight at the time of euthanasia ([3]; FIG. 6C) | expression of iNOS in the intestinal mucosa (qRT-PCR) ([4]; oral 1 mg/kg, formula-fed NEC mice, FIG. 7B(i), p<0.05 FF+CpG vs FF) | expression of IL-6 in the intestinal mucosa (qRT-PCR) ([4]; oral 1 mg/kg, formula-fed NEC mice, FIG. 7B(ii), p<0.05 FF+CpG vs FF) | NEC severity score ([4]; oral 1 mg/kg, score 0 (normal) to 3 (severe), FIG. 7B(iii)) | intestinal inflammation (ileum photomicrographs and gross images) ([4]; oral 1 mg/kg/day incl. 4 days pretreatment, formula-fed NEC mice, FIG. 7A) | LPS-induced increase in expression of IL1β (qRT-PCR) [5, 6] | LPS-induced increase in expression of TLR4 (qRT-PCR) [5, 6] | LPS-induced expression of IL-6 (qRT-PCR) ([5]; human NEC tissue, FIG. 8B) | LPS-induced expression of iNOS (qRT-PCR) ([5]; human NEC tissue, FIG. 8B)
1 | CpG-2: CpG-ODN 5′ TCGTCGTTTTGTCGTTCCTGACGTT 3′ (SEQ ID NO:9) (listed as DNA, chemistry not given here) | trended towards but did not reach statistical significance | much more robust | brought the levels of TNFα in mNEC animals down to approach the level in BF controls | ameliorated | higher body weight | largely absent | – | – | – | – | – | – | – | – | – | – | – | –
2 | CpG ODN 1826 [CpG-1] | – | much more robust | brought the levels of TNFα in mNEC animals down to approach the level in BF controls | ameliorated | higher body weight | – | substantially reduced | reduced almost to baseline levels | reduced almost to baseline levels | approached controls | reduced | reduced | reduced | attenuates intestinal inflammation | reduced | reduced | reduced | reduced
